Several values for one entry are separate records, joined by “and”; a condition that tells them apart may be missing. Equal entries are not always repeated. Where two headings read alike, the source gives them in different places.
Experiments:
HSV1 = HSV1 plaque formation in Vero cells (Example 1); type: cell-based, Human herpes simplex virus type 1; details: for HSV1 plaque formation in Vero cells, plaque count, wells 1-4: 1 hour; for HSV1 plaque formation in Vero cells, Mean ± sd: untreated 107 ± 14.2
Description: FIG. 1 and table 1 show typical results for the test for anti-HSV1 activity. The assay involved treating confluent Vero cells in 24-well plates with medium containing virus and varying amounts of peptide for one hour, followed by removal of this inoculum, and addition of viscous ‘overlay’ medium, containing 0.2% high viscosity carboxymethylcellulose. The overlay medium only allows infection of those cells immediately adjacent to an infected cell. After 2 days incubation and then fixation and staining, small patches of infected cells (or ‘plaques’) are visible, which are counted. Each of these corresponds to the infection of a single cell during the one hour inoculation. ApoE141-149dp produced a 40% reduction in plaque number at a concentration of around 20 μM. Note the peptide was only present in the experimental system for 1 hour.

HSV2 = HSV2 plaque formation in HEp-2 cells (Example 1); type: cell-based, Human herpes simplex virus type 2; details: for HSV2 plaque formation in HEp-2 cells, plaque count, wells 1-4: 1 hour; for HSV2 plaque formation in HEp-2 cells, Mean ± sd: untreated 152 ± 10.7
Description: FIG. 2 and table 2 show typical results for the test for anti-HSV2 activity. The assay was carried out as for the anti-HSV1 assay, except Hep-2 cells were used rather than Vero cells. ApoE141-149dp produced a 50% reduction in plaque number at a concentration of around 20 μM. Again note that the peptide was only present in the experimental system for 1 hour.

[1] = peptide 10 μM in virus inoculum
[2] = peptide 20 μM in virus inoculum
[3] = peptide 30 μM in virus inoculum
[4] = peptide 40 μM in virus inoculum
[5] = peptide 30 μM, U937 cells, 7 days
[6] = peptide 50 μM, U937 cells, 7 days

With “ApoE263-286: apoE263-286 peptide tested alongside apoE141-149dp in Example 1 (SWFEPLVEDMQRQWAGLVEKVQAA; UniProt P02649 281-304, looked up, fragment) [reference compound]” the “HSV1 plaque formation in Vero cells, plaque count, wells 1-4” value (shortened to “HSV1 plaque formation … wells 1-4”) (HSV1; peptide 5 μM in virus inoculum) was 113 and 119 and 122 and 126, the “HSV1 plaque formation in Vero cells, Mean ± sd” value (HSV1; peptide 5 μM) was 120 ± 5.5 and the “HSV1 plaque formation … wells 1-4” value (HSV1; [1]) was 116 and 124 and 102. The “HSV1 plaque formation in Vero cells, Mean ± sd” value (HSV1; peptide 10 μM) was 114 ± 11.1, the “HSV1 plaque formation … wells 1-4” value (HSV1; [2]) was 148 and 112 and 133 and 114 and the “HSV1 plaque formation in Vero cells, Mean ± sd” value (HSV1; peptide 20 μM) was 127 ± 17.0. The “HSV1 plaque formation … wells 1-4” value (HSV1; [3]) was 134 and 109 and 114 and 125, the “HSV1 plaque formation in Vero cells, Mean ± sd” value (HSV1; peptide 30 μM) was 121 ± 11.2 and the “HSV1 plaque formation … wells 1-4” value (HSV1; [4]) was 120 and 113 and 125 and 144. The “HSV1 plaque formation in Vero cells, Mean ± sd” value (HSV1; peptide 40 μM) was 126 ± 11.2, the “HSV2 plaque formation in HEp-2 cells, plaque count, wells 1-4” value (“HSV2 plaque formation … wells 1-4” for short) (HSV2; peptide 5 μM in virus inoculum) was 135 and 160 and 161 and 152 and the “HSV2 plaque formation in HEp-2 cells, Mean ± sd” value (HSV2; peptide 5 μM) was 152 ± 12.0. For the same substance, the “HSV2 plaque formation … wells 1-4” value (HSV2; [1]) was 157 and 121 and 151 and 134, the “HSV2 plaque formation in HEp-2 cells, Mean ± sd” value (HSV2; peptide 10 μM) was 141 ± 16.1 and the “HSV2 plaque formation … wells 1-4” value (HSV2; [2]) was 118 and 150 and 182 and 134. The “HSV2 plaque formation in HEp-2 cells, Mean ± sd” value (HSV2; peptide 20 μM) was 146 ± 27.3, the “HSV2 plaque formation … wells 1-4” value (HSV2; [3]) was 118 and 117 and 103 and 159 and the “HSV2 plaque formation in HEp-2 cells, Mean ± sd” value (HSV2; peptide 30 μM) was 124 ± 24.2. For the same substance, the “HSV2 plaque formation … wells 1-4” value (HSV2; [4]) was 132 and 144 and 125 and 124, the “HSV2 plaque formation in HEp-2 cells, Mean ± sd” value (HSV2; peptide 40 μM) was 131 ± 24.2 and the “activity against HIV, significance by ANOVA (in words)” value (HIV-1; FIG. 3, acutely infected U937 cells) was “did not reach significance”. For the same substance, the “reduction in infectivity (HIV)” value (HIV-1; at 20 μM, U937 cells, 7 days) was 20%, the “% Decrease in HIV p24 Production, Mean ± sd” value (“% Decrease … Mean ± sd” below) (HIV-1; peptide 10 μM, U937 cells, 7 days) was 23.21 ± 12.79% and the “% Decrease … Mean ± sd” value (HIV-1; peptide 20 μM, U937 cells, 7 days) was 22.77 ± 13.07%. For the same substance, the “% Decrease in HIV p24 Production, Exp. 1-3” value (HIV-1; [5]) was 37.94% and 27.83% and 41.78%, the “% Decrease … Mean ± sd” value (HIV-1; [5]) was 35.85 ± 7.21% and the “% Decrease … Mean ± sd” value (HIV-1; peptide 40 μM, U937 cells, 7 days) was 38.87 ± 12.70%. For the same substance, the “% Decrease in HIV p24 Production, Exp. 1-3” value (HIV-1; [6]) was 33.36% and 41.45% and 45.66% and the “% Decrease … Mean ± sd” value (HIV-1; [6]) was 40.16 ± 6.25%.

From patent US7691382B2, “Antiviral polypeptides comprising tandem repeats of APOE 141-149 and variants thereof” (priority 2003, dated 2010)
